Assay results: US11401279B2, “Pyrido[3,2-d]pyrimidine compounds as immunomodulators” (Incyte Corporation, priority 2019, dated 2022)
Read-outs that look alike come from different tables or passages of the source.

How the values were obtained:
[1] = target: PD-1/PD-L1 (Homo sapiens (Human), UniProt Q9NZQ7); assay: Homogeneous Time-Resolved Fluorescence (HTRF) PD-1/PD-L1 binding assay; conditions: recombinant human PD-1 and PD-L1
Method: The assays were conducted in a standard black 384-well polystyrene plate with a final volume of 20 μL. Inhibitors were first serially diluted in DMSO and then added to the plate wells before the addition of other reaction components. The final concentration of DMSO in the assay was 1%. The assays were carried out at 25° C. in the PBS buffer (pH 7.4) with 0.05% Tween-20 and 0.1% BSA. Recombinant human PD-L1 protein (19-238) with a His-tag at the C-terminus was purchased from AcroBiosystems (PD1-H5229). Recombinant human PD-1 protein (25-167) with Fc tag at the C-terminus was also purchased from AcroBiosystems (PD1-H5257). PD-L1 and PD-1 proteins were diluted in the assay buffer and 10 μL was added to the plate well. Plates were centrifuged and proteins were preincubated with inhibitors for 40 minutes. The incubation was followed by the addition of 10 μL of HTRF detection buffer supplemented with Europium cryptate-labeled anti-human IgG (PerkinElmer-AD0212) specific for Fc and anti-His antibody conjugated to SureLight®-Allophycocyanin (APC, PerkinElmer-AD0059H). After centrifugation, the plate was incubated at 25° C. for 60 min. before reading on a PHERAstar FS plate reader (665 nm/620 nm ratio). Final concentrations in the assay were—3 nM PD1, 10 nM PD-L1, 1 nM europium anti-human IgG and 20 nM anti-His-Allophycocyanin. IC50 determination was performed by fitting the curve of percent control activity versus the log of the inhibitor concentration using the GraphPad Prism 5.0 software.

[2] = system: U2OS/PD-L1 cells and Jurkat-PD-1-SHP cells; assay: Src homology region 2 domain-containing phosphatase (SHP) assay; assay type: cell-based; conditions: PathHunter chemiluminescence, 2 hours
Method: U2OS/PD-L1 cells (DiscoveRx Corporation) were maintained in McCoy's 5A medium with addition of 10% FBS, 0.25 μg/mL Puromycin. After removing the culture media, the cell medium was replaced with assay medium (RPMI1640 medium with 1% FBS). The U2OS/PD-L1 cells were then added in 384-well black clear bottom assay plate (CELLCOAT® Tissue Culture Plates, Greiner Bio-One) at 5000 cells per well in 20 μL assay medium. Test compounds were prepared by serial dilution in DMSO and 125 nL compound were first transferred to the 384 REMP plate well (Thermofisher) by ECHO liquid handler (Labcyte) followed with addition of 27.5 μL assay medium. 5 µL/well compounds in the assay medium were transferred to the cell plate with 0.05% DMSO in the final assay at 0.25 μM. Jurkat-PD-1-SHP cells (DiscoveRx Corporation) were cultured in RPMI1640 medium supplemented with 10% FBS, 250 μg/mL Hygromycin B, 500 μg/mL G418. After the replacement of culture media with assay medium, 5,000 Jurkat-PD-1-SHP cells in 20 μL were dispensed into each well. The assay plate was incubated at 37° C., 5% CO2 for 2 hours before 2.5 μL PathHunter reagent 1 (DiscoveRx Corporation) were added to each well. The assay plate was shaken for 1 min at 350 rpm in the dark followed with addition of 10 μL PathHunter reagent 2 (DiscoveRx Corporation). Chemiluminescent signal was recorded with TopCount reader (Perkin Elmer) after incubation at room temperature for 1 hour. Wells with DMSO were served as the positive controls and wells containing no cells were used as negative controls. IC50 determination was performed by fitting the curve of percentage of control activity versus the log of the compound concentration using the GraphPad Prism 6.0 software.

[3] = In vivo pharmacokinetics in rats; design: species or system Sprague Dawley rats; conditions: rat, cassette dosing; for Vd: read-out: Vss; for Cmax / AUC(0-inf) / F: 3.0 mg/kg PO
Method: For in vivo pharmacokinetic experiments, test compounds were administered to male Sprague Dawley rats or male and female Cynomolgus monkeys intravenously or via oral gavage. For intravenous (IV) dosing, test compounds were dosed at 0.5 to 1 mg/kg using a formulation of 10% dimethylacetamide (DMAC) in acidified saline via IV bolus for rat and 5 min or 10 min IV infusion for monkey. For oral (PO) dosing, test compounds were dosed at 1.0 to 3.0 mg/kg using 5% DMAC in 0.5% methylcellulose in citrate buffer (pH 3.5). Blood samples were collected at predose and various time points up to 24 hours postdose. All blood samples were collected using EDTA as the anticoagulant and centrifuged to obtain plasma samples. The plasma concentrations of test compounds were determined by LC-MS methods. The measured plasma concentrations were used to calculate PK parameters by standard noncompartmental methods using Phoenix® WinNonlin software program (version 7.0, Pharsight Corporation).
In rats and monkeys, cassette dosing of test compounds were conducted to obtain preliminary PK parameters.

[4] = system: PD-L1 aAPC/CHO-K1 cells and Jurkat-PD-1-NFAT effector cells; assay: Nuclear factor of activated T-cells (NFAT) assay; assay type: cell-based; conditions: luminescence, 24 hours
Method: PD-L1 aAPC/CHO-Klcells (Promega) were maintained in F-12 medium with addition of 10% FBS, 200 μg/mL Hygromycin B, 250 μg/mL Geneticin (G418). Jurkat-PD-1-NFAT effector cells (Promega) were cultured in RPMI 1640 medium supplemented with 10% FBS, 100 μg/mL Hygromycin B, 500 μg/mL G418. The culture media of PD-L1 aAPC/CHO-K1 cells were first replaced with assay medium (RPMI1640 medium with 1% FBS). The PD-L1 aAPC/CHO-Klcells were then added in a white 384-well white clear bottom assay plate (CELLCOAT® Tissue Culture Plates, Greiner Bio-One) at 8000 per well in 10 μL assay medium. Test compounds were prepared by serial dilution in DMSO and 0.8 μL test compounds in DMSO were first transferred to the 384 REMP plate well (Thermofisher) by PlateMate Plus (Thermofisher) followed with addition of 50 μL plating medium. 5 μL compounds in the assay medium were transferred to the cells with 0.4% DMSO in the final assay at 2 μM. After removing the culture media, 10,000 Jurkat-PD-1-NFAT effector cells in 5 μL assay medium was dispensed into each well. The assay plate was incubated at 37° C., 5% CO2 for 24 hours. After the assay plate was equilibrated to room temp for 15 minutes, 20 μL/well of Bio-Glo™ reagent (Promega) were added. After 8 minutes incubation at room temperature, luminescence was read at with Pherastar microplate reader (BMG Labtech). The fold of induction (FOI) was calculated based on the ratio of luminescence normalized to the DMSO wells within each assay plate. The maximum percentage of induction was reported based on the ratio between the highest FOI of each compound and the maximum FOI of control compound within each assay plate. Wells with DMSO were served as the negative controls and wells containing control compound with the highest FOI were used as positive controls. EC50 determination was performed by fitting the curve of percent control activity versus the log of the compound concentration using the GraphPad Prism 6.0 software.

[5] = target: PD-L1 (Homo sapiens (Human), UniProt Q9NZQ7); assay: PD-L1 whole blood internalization assay; assay type: cell-based; conditions: PD-L1 internalization in human whole blood, CD14+ cells, interferon γ, 24 hour
Chain of PD-L1 (Q9NZQ7 19-290): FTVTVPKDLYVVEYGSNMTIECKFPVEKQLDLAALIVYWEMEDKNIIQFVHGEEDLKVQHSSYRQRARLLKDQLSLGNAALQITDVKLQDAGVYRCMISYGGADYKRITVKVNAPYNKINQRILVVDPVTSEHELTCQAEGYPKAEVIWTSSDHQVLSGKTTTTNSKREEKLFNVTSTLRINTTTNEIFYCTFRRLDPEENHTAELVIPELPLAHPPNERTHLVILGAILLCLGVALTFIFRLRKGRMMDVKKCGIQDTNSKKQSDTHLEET
Method: To determine PD-L1 internalization in human whole blood, normal human blood (Biological Specialty Corp, Colmar. Pa.) was incubated in the presence or absence of a concentration range of test compounds and 1 ng/mL human interferon γ (R&D Systems Inc. Minn. […] Blood was then stained with PD-L1 (MIH1, eBioscience; or BD Biosciences San Jose, Calif.), CD14 (Life Technologies, Carlsbad, Calif.) for 30 minutes in the dark at room temperature. Whole Blood/red cells were lysed/fixed (lysis buffer BD Biosciences) for 5 minutes at 37° C. in the dark and then centrifuged at 1600 RPM for 5 minutes. Cells were resuspended in Stain Buffer (BD Bioscience, San Jose, Calif.) and transferred into 96 well round bottom plates (Corning). Cells were gated on CD14+(BD Biosciences) and PD-L1 expression determined by mean fluorescence intensity (MFI) (BD LSRFortessa™ X-20). IC50 determination was performed by fitting the curve of compound percent inhibition versus the log of the compound concentration using the GraphPad Prism 7.0 software.

[6] = male, Sprague-Dawley, plasma, 1.0 mg/kg IV
[7] = male, Sprague-Dawley, plasma, read-out: AUC0-inf

Chain of PD-1/PD-L1 (Q9NZQ7 19-238): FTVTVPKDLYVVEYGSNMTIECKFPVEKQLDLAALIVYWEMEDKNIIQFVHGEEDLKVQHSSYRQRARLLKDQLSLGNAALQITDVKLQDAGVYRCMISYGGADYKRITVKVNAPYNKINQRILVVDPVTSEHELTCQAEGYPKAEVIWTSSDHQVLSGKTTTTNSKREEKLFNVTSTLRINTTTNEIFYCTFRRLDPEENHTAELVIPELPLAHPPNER

## CN1CCc2c(nc(C(=O)Nc3cccc(-c4cccc(NC(=O)c5nc6c(n5C)CCN(CC57CCC(C(=O)O)(CC5)C7)C6)c4Cl)c3Cl)n2C)C1 [Example 84]
[1]
  IC50: 8.3 nM
[2]; Homo sapiens, U2OS
  IC50: 6.9 nM
[3]; [6]
  clearance: 16.5 mL/min/kg
  half-life: 3.47 h
  Vd: 2.45 L/kg
[3]; male, Sprague-Dawley, plasma
  Cmax: 234 nM
[3]; [7]
  AUC(0-inf): 1.2 µM·h
[3]
  F: 28%
[4]; Cricetulus griseus, CHO-K1
  EC50: 47 nM
[5]
  IC50: 97 nM

## Cc1c(NC(=O)c2nc3c(n2C)CCN(CC24CCC(C(=O)O)(CC2)C4)C3)cccc1-c1cccc(NC(=O)c2nc3c(n2C)CCN(C)C3)c1Cl [Example 102]
[1]
  IC50: 2.4 nM
[2]; Homo sapiens, U2OS
  IC50: 4.9 nM
[3]; [6]
  clearance: 19 mL/min/kg
  half-life: 1.9 h
  Vd: 1.96 L/kg
[3]; male, Sprague-Dawley, plasma
  Cmax: 398 nM
[3]; [7]
  AUC(0-inf): 1.5 µM·h
[3]
  F: 39%
[4]; Cricetulus griseus, CHO-K1
  EC50: 76 nM
[5]
  IC50: 149 nM

## CC(C)N1CCc2c(nc(C(=O)Nc3cccc(-c4cccc(NC(=O)c5nc6c(n5C)CCN(CC57CCC(C(=O)O)(CC5)C7)C6)c4Cl)c3Cl)n2C)C1 [Example 177, reference compound]
[1]
  IC50: 1.5 nM
[2]; Homo sapiens, U2OS
  IC50: 5.7 nM
[4]; Cricetulus griseus, CHO-K1
  EC50: 31 nM
[5]
  IC50: 185 nM

## Cn1c(C(=O)Nc2cccc(-c3cccc(NC(=O)c4nc5c(n4C)CCN(C4CCC4)C5)c3Cl)c2Cl)nc2c1CCN(CC13CCC(C(=O)O)(CC1)C3)C2 [Example 178, reference compound]
[1]
  IC50: 1.9 nM
[2]; Homo sapiens, U2OS
  IC50: 13 nM
[4]; Cricetulus griseus, CHO-K1
  EC50: 82 nM
[5]
  IC50: 587 nM

## Cn1c(C(=O)Nc2cccc(-c3cccc(NC(=O)c4nc5c(n4C)CCN(CC46CCC(C(=O)O)(CC4)C6)C5)c3Cl)c2Cl)nc2c1CCN(CCO)C2 [Example 180]
[1]
  IC50: 1.5 nM
[2]
  IC50: 4.4 nM
[3]; 1.0 mg/kg IV
  Cl: 26.2 mL/min/kg
  Vss: 2.48 L/kg
  t1/2: 2.21 h
[3]
  AUC(0-inf): 0.956 µM·h
  Cmax: 231 nM
  F: 38%
[4]
  EC50: 30 nM
[5]
  IC50: 166 nM

## C[C@H](O)CN1CCc2c(nc(C(=O)Nc3cccc(-c4cccc(NC(=O)c5nc6c(n5C)CCN(CC57CCC(C(=O)O)(CC5)C7)C6)c4Cl)c3Cl)n2C)C1 [Example 181, reference compound]
[1]
  IC50: 1.6 nM
[2]; Homo sapiens, U2OS
  IC50: 6.1 nM
[4]; Cricetulus griseus, CHO-K1
  EC50: 41 nM
[5]
  IC50: 161 nM

## C[C@@H](O)CN1CCc2c(nc(C(=O)Nc3cccc(-c4cccc(NC(=O)c5nc6c(n5C)CCN(CC57CCC(C(=O)O)(CC5)C7)C6)c4Cl)c3Cl)n2C)C1 [Example 182, reference compound]
[1]
  IC50: 1.7 nM
[2]; Homo sapiens, U2OS
  IC50: 4.4 nM
[4]; Cricetulus griseus, CHO-K1
  EC50: 30 nM
[5]
  IC50: 92 nM

## Cn1c(C(=O)Nc2cccc(-c3cccc(NC(=O)c4nc5c(n4C)CCN(C4CCC(O)CC4)C5)c3Cl)c2Cl)nc2c1CCN(CC13CCC(C(=O)O)(CC1)C3)C2 (centres unmarked) [Example 183, reference compound]
[1]
  IC50: 1.8 nM
[2]; Homo sapiens, U2OS
  IC50: 5.6 nM
[4]; Cricetulus griseus, CHO-K1
  EC50: 18 nM
[5]
  IC50: 49 nM

## Cc1c(-c2nc3cc(CN4CC[C@@H](O)C4)cc(C#N)c3o2)cccc1-c1cccc(NC(=O)c2nc3c(n2C)CCN(CCC2CCC(C(=O)O)CC2)C3)c1Cl (some centres unmarked) [Example 265]
[1]
  IC50: 2.3 nM
[2]; Homo sapiens, U2OS
  IC50: 4.9 nM
[3]; [6]
  clearance: 63.7 mL/min/kg
  Vd: 4.45 L/kg
[3]; male, Sprague-Dawley, plasma
  Cmax: 57 nM
[3]; [7]
  AUC(0-inf): 0.398 µM·h
[3]
  F: 8%
[4]; Cricetulus griseus, CHO-K1
  EC50: 15 nM
[5]
  IC50: 62 nM

## Cc1c(-c2nc3cc(CN4CC[C@@H](O)C4)cc(C#N)c3o2)cccc1-c1cccc(NC(=O)c2nc3c(n2C)CCN(CC24CCC(C(=O)O)(CC2)C4)C3)c1Cl [Example 267]
[1]
  IC50: 2.3 nM
[2]; Homo sapiens, U2OS
  IC50: 7.8 nM
[3]; [6]
  half-life: 3.28 h
  Vd: 2.22 L/kg
[3]; male, Sprague-Dawley, plasma
  Cmax: 108 nM
[3]; [7]
  AUC(0-inf): 0.687 µM·h
[3]
  F: 12%
[4]; Cricetulus griseus, CHO-K1
  EC50: 39 nM
[5]
  IC50: 121 nM
